# Where two headings read alike, the source gives them in different places.
# Tests used:
# HIV [1] = assay: anti-HIV activity at different modes of administration, quantity of syncytia; format: in vivo; conditions: placebo 100
# HIV [2] = format: cell-based; conditions: comparison preparation, no ratio
# Protocol: (§1) The antiviral activity of preparations was assessed by the methods recommended for this purpose by the World Health Organization (20, 21). For this purpose we used the cultures of inoculated cell lines SEM and MT-4. The cells were cultured at a concentration of (0.03-0.05)x10^6 cells per 1 ml of PPM1 1640 with 10-% fetal serum of calves, 300 mg/ml of glutamine, 100 mkg/ml of heptamicine and grown in the form of a suspension. The vital activity of cells was checked by coloring them with a 0.4-% solution of trypan blue. The virus sources were strains HIV/IVS and HIV - 1 HTLV/IIIB.
# (§2) The suspension of cells was placed into 24-hole boards, treated with different doses of the preparation and infected with HIV. The multiplicity of infection was 0.01 TCD50 per cell. Then the cultures were incubated at 37 C in the atmosphere containing 5% CO2 at a moisture content of 98% for 5-7 days before determining the cytopathic effect of the virus on the cell culture.
# A culture of inoculated cells, line CEMSS and MT-4 was used in the experiment. […]
# (§3) Then the cultures were incubated at 37 C in the atmosphere containing 5% of CO at a moisture content of 98% for 5-7 days before determining the cytopathic effect of the virus on the cell culture. The formation of viral antigen was assessed by an immunofermental analysis.
# HIV [3] = format: cell-based; conditions: comparison preparation, no ratio; remark: listed apart in the source
# Protocol: as §1, §2
# The formation of viral antigen was assessed by immuno-fermental analysis.
# as §3
smiles,measurement,setting,value
"Cc1cn([C@H]2C[C@H](N=[N+]=[N-])[C@@H](CO)O2)c(=O)[nH]c1=O [AZT (azidothymidine), 3-azi-3-desoxythymidine]","Qty of syncytia, %",HIV [1]; intracerebral,10%
same,"Qty of syncytia, %",HIV [1]; intranasal,75%
same,"No of syncytia, % of virus control",HIV [2],8%
same,Data of immuno-enzyme analysis,HIV [3],0.1 mg/mg
same,"Data of immuno-enzyme analysis, optical density",HIV [3],0.091
same,quantity of survived mice / quantity of infected mice,"nonlinear white mice; intraabdominal, 5 mg/kg",6/6
same,quantity of survived mice / quantity of infected mice,"nonlinear white mice; intraabdominal, 10 mg/kg",6/6
same,quantity of survived mice / quantity of infected mice,"nonlinear white mice; intraabdominal, 20 mg/kg",6/6
same,quantity of survived mice / quantity of infected mice,"nonlinear white mice; intraabdominal, 35 mg/kg",6/6
same,quantity of survived mice / quantity of infected mice,"nonlinear white mice; intraabdominal, 50 mg/kg",6/6
same,quantity of survived mice / quantity of infected mice,"nonlinear white mice; intraabdominal, 75 mg/kg",6/6
same,mortality of mice,"nonlinear white mice; intracerebral introduction, doses from 10 to 50 mg/kg",50%
same,quantity of survived mice / quantity of infected mice,"nonlinear white mice; intracerebral, 5 mg/kg",6/6
same,quantity of survived mice / quantity of infected mice,"nonlinear white mice; intracerebral, 10 mg/kg",6/6
same,quantity of survived mice / quantity of infected mice,"nonlinear white mice; intracerebral, 20 mg/kg",6/6
same,quantity of survived mice / quantity of infected mice,"nonlinear white mice; intracerebral, 35 mg/kg",6/6
same,quantity of survived mice / quantity of infected mice,"nonlinear white mice; intracerebral, 50 mg/kg",6/6
same,quantity of survived mice / quantity of infected mice,"nonlinear white mice; intracerebral, 75 mg/kg",6/6
same,quantity of survived mice / quantity of infected mice,"nonlinear white mice; intranasal, 5 mg/kg",6/6
same,quantity of survived mice / quantity of infected mice,"nonlinear white mice; intranasal, 10 mg/kg",6/6
same,quantity of survived mice / quantity of infected mice,"nonlinear white mice; intranasal, 20 mg/kg",6/6
same,quantity of survived mice / quantity of infected mice,"nonlinear white mice; intranasal, 35 mg/kg",6/6
same,quantity of survived mice / quantity of infected mice,"nonlinear white mice; intranasal, 50 mg/kg",6/6
same,quantity of survived mice / quantity of infected mice,"nonlinear white mice; intranasal, 75 mg/kg",6/6
same,quantity of survived mice / quantity of infected mice,"nonlinear white mice; subcutaneous, 5 mg/kg",6/6
same,quantity of survived mice / quantity of infected mice,"nonlinear white mice; subcutaneous, 10 mg/kg",6/6
same,quantity of survived mice / quantity of infected mice,"nonlinear white mice; subcutaneous, 20 mg/kg",6/6
same,quantity of survived mice / quantity of infected mice,"nonlinear white mice; subcutaneous, 35 mg/kg",6/6
same,quantity of survived mice / quantity of infected mice,"nonlinear white mice; subcutaneous, 50 mg/kg",6/6
same,quantity of survived mice / quantity of infected mice,"nonlinear white mice; subcutaneous, 75 mg/kg",6/6

# Reference: EP0712936B1, “LOW-MOLECULAR DNA FROM STURGEON MILT, A METHOD OF OBTAINING THE DNA AND A PHARMACEUTICAL PREPARATION BASED ON IT” (NAUCHNO-PROIZVODSTVENNOE PREDPRIYATIE "FARMEK", priority 1993, dated 1994)
